Source: patent US10526320B2, “Pyrrolidine derivatives as PPAR agonists” (GUANGDONG RAYNOVENT BIOTECH CO., LTD., priority 2016, dated 2020)
Read-outs that look alike come from different tables or passages of the source.

Assays:
PPAR Alpha = target: T1, PPAR Alpha (Homo sapiens, UniProt Q07869); test: PathHunter NHR protein interaction / nuclear translocation agonist test, PPAR Alpha; type: cell-based; conditions: for EC50: agonist mode, read-out: PPAR Alpha EC50; for Emax: read-out: PPAR Alpha Maximum Activation Response %
T1 sequence (Q07869 1-468): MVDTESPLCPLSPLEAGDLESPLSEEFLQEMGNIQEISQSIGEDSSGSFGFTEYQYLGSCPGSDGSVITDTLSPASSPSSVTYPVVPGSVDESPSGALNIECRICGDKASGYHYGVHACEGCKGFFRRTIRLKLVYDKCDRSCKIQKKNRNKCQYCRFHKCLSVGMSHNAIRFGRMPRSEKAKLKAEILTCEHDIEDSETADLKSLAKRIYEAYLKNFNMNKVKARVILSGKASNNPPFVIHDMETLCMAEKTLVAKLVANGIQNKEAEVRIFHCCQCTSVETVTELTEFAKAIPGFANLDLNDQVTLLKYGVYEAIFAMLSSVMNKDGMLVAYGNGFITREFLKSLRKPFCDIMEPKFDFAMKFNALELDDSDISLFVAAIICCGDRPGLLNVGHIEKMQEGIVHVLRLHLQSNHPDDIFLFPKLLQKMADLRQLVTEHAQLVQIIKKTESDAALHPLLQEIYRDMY

PPAR Delta = target: T2, PPAR Delta (Homo sapiens, UniProt Q03181); test: PathHunter NHR protein interaction / nuclear translocation agonist test, PPAR Delta; type: cell-based; conditions: for EC50: agonist mode, read-out: PPAR Delta EC50; for Emax: read-out: PPAR Delta Maximum Activation Response %
T2 sequence (Q03181 1-441): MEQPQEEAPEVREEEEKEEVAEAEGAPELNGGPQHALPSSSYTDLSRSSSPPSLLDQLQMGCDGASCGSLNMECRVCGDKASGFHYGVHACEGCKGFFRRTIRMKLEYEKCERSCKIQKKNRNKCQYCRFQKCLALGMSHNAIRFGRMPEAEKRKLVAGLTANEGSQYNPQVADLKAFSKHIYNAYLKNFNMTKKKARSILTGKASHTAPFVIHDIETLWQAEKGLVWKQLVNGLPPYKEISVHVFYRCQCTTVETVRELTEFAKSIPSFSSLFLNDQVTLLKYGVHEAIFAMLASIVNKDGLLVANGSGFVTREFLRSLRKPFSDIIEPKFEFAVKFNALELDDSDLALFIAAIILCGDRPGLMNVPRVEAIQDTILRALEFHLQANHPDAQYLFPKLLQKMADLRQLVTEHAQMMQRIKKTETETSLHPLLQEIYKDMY

Structure (SMILES): CSc1ccc(C(=O)[C@H]2CN(C)C[C@@H]2c2cc(C)c(OC(C)(C)C(=O)O)c(C)c2)cc1 (racemic) [Compound 1]
- EC50 (PPAR Alpha): > 250 nM
- Emax (PPAR Alpha): < 50%

Structure (SMILES): CSc1ccc(C(=O)[C@H]2CN(Cc3ccccc3)C[C@@H]2c2cc(C)c(OC(C)(C)C(=O)O)c(C)c2)cc1 (racemic) [Compound 2]
- EC50 (PPAR Alpha): > 250 nM
- Emax (PPAR Alpha): < 50%

Structure (SMILES): CSc1ccc(C(=O)[C@H]2CNC[C@@H]2c2cc(C)c(OC(C)(C)C(=O)O)c(C)c2)cc1 (racemic) [Compound 3]
- EC50 (PPAR Alpha): > 250 nM
- Emax (PPAR Alpha): < 50%

Structure (SMILES): CSc1ccc(C(=O)C2CN(C(=O)Oc3ccccc3Cl)C[C@@H]2c2cc(C)c(OC(C)(C)C(=O)O)c(C)c2)cc1 (mixture of isomers) [Compound 12]
- EC50 (PPAR Delta): > 250 nM
- Emax (PPAR Delta): 50 to 80%
- EC50 (PPAR Alpha): 150 to 200 nM
- Emax (PPAR Alpha): 80 to 100%

Structure (SMILES): COc1ccc(OC(=O)N2CC(C(=O)c3ccc(SC)cc3)[C@@H](c3cc(C)c(OC(C)(C)C(=O)O)c(C)c3)C2)cc1 (mixture of isomers) [Compound 15]
- EC50 (PPAR Delta): 200 to 250 nM
- Emax (PPAR Delta): 50 to 80%
- EC50 (PPAR Alpha): 150 to 200 nM
- Emax (PPAR Alpha): 80 to 100%

Structure (SMILES): CSc1ccc(C(=O)[C@H]2CN(C(=O)Cc3ccc(Cl)cc3)C[C@@H]2c2cc(C)c(OC(C)(C)C(=O)O)c(C)c2)cc1 (racemic) [Compound 36]
- EC50 (PPAR Delta): > 250 nM
- Emax (PPAR Delta; relative to known PPARδ agonist L-165,041 = 100%): 50 to 80%
- EC50 (PPAR Alpha): < 100 nM
- Emax (PPAR Alpha): 80 to 100%

Structure (SMILES): CSc1ccc(C(=O)[C@H]2CN(C(=O)Nc3ccc(Cl)cc3)C[C@@H]2c2cc(C)c(OC(C)(C)C(=O)O)c(C)c2)cc1 (racemic) [Compound 37]
- EC50 (PPAR Delta): 200 to 250 nM
- Emax (PPAR Delta): 50 to 80%
- EC50 (PPAR Alpha): < 100 nM
- Emax (PPAR Alpha): 80 to 100%

Structure (SMILES): COC(=O)N1C[C@@H](C(=O)c2ccc(SC)cc2)[C@H](c2cc(C)c(OC(C)(C)C(=O)O)c(C)c2)C1 (single isomer, unassigned) [Compound 4]
- PPAR Alpha Maximum Activation Response % (PPAR Alpha): III (key: 100% ≥ I ≥ 80%; 80% ≥ II ≥ 50%; III < 50%)
- EC50 (PPAR Alpha): > 250 nM

Structure (SMILES): CCOC(=O)N1CC(C(=O)c2ccc(SC)cc2)C(c2cc(C)c(OC(C)(C)C(=O)O)c(C)c2)C1 (single isomer, unassigned) [Compound 6]
- EC50 (PPAR Alpha): > 250 nM
- Emax (PPAR Alpha): 50 to 80%

Structure (SMILES): CSc1ccc(C(=O)C2CN(C(=O)OCc3ccccc3)CC2c2cc(C)c(OC(C)(C)C(=O)O)c(C)c2)cc1 (single isomer, unassigned) [Compound 8]
- EC50 (PPAR Alpha): > 250 nM
- Emax (PPAR Alpha): 50 to 80%

Structure (SMILES): CSc1ccc(C(=O)C2CN(C(=O)c3ccccc3)CC2c2cc(C)c(OC(C)(C)C(=O)O)c(C)c2)cc1 (single isomer, unassigned) [Compound 16]
- EC50 (PPAR Alpha): > 250 nM
- Emax (PPAR Alpha): 80 to 100%

Structure (SMILES): CSc1ccc(C(=O)C2CN(C(=O)c3ccccc3)CC2c2cc(C)c(OC(C)(C)C(=O)O)c(C)c2)cc1 (single isomer, unassigned) [Compound 17]
- EC50 (PPAR Alpha): > 250 nM

Structure (SMILES): COC(=O)N1CC(Cc2ccc(SC)cc2)C(c2cc(C)c(OC(C)(C)C(=O)O)c(C)c2)C1 (single isomer, unassigned) [Compound 22]
- EC50 (PPAR Alpha): > 250 nM
- Emax (PPAR Alpha): < 50%

Structure (SMILES): COC(=O)N1CC(Cc2ccc(SC)cc2)C(c2cc(C)c(OC(C)(C)C(=O)O)c(C)c2)C1 (single isomer, unassigned) [Compound 23]
- EC50 (PPAR Alpha): > 250 nM

Structure (SMILES): CSc1ccc(C(=O)C2CN(C(=O)Oc3ccccc3)CC2Cc2cccc(OC(C)(C)C(=O)O)c2)cc1 (single isomer, unassigned) [Compound 49]
- EC50 (PPAR Delta): 100 to 150 nM
- Emax (PPAR Delta): 50 to 80%

Structure (SMILES): CSc1ccc(C(=O)C2CN(C(=O)Oc3ccccc3)CC2Cc2cccc(OC(C)(C)C(=O)O)c2)cc1 (single isomer, unassigned) [Compound 50]
- PPAR Delta Maximum Activation Response % (PPAR Delta): II (key: 100% ≥ I ≥ 80%; 80% ≥ II ≥ 50%; III < 50%)
- EC50 (PPAR Delta): 150 to 200 nM

Structure (SMILES): CSc1ccc(C(=O)C2CN(C(=O)Oc3ccccc3)CC2c2cccc(OC(C)(C)C(=O)O)c2)cc1 (centres unmarked) [Compound 24]
- EC50 (PPAR Delta): > 250 nM
- Emax (PPAR Delta): 80 to 100%

Structure (SMILES): CC(C)(Sc1ccc(CCN(CCCCC2CCCCC2)C(=O)NC2CCCCC2)cc1)C(=O)O [GW7647, reference compound]
- Emax (PPAR Alpha; reference agonist, indicated to be 100% (Note 1)): 100%
